Measurements reported in publication PMC6550521, “Stress-Induced Changes in the Lipid Microenvironment of β-(1,3)-D-Glucan Synthase Cause Clinically Important Echinocandin Resistance in Aspergillus fumigatus” (mBio, 2019).
Values joined by “and” are separate entries in the source; they are usually repeats but may differ in a detail not shown here. Identical values can stand only once.

What was measured:
[1] = tested on: A. fumigatus RG101; assay type: cell-based, Aspergillus fumigatus
Experimental: The following drugs (supplier) were tested: caspofungin (Merck & Co., Inc.), micafungin (Astellas Pharma US, Inc.), anidulafungin (Pfizer Inc.), itraconazole (Sigma-Aldrich), voriconazole (Pfizer Inc.), and amphotericin B (Sigma-Aldrich). In addition, rezafungin and ibrexafungerp were obtained from Cidara Therapeutics and Scynexis Inc., respectively.

[2] = biological target: β-(1,3)-D-glucan synthase of clinical isolate 117 (Aspergillus fumigatus, UniProt Q4WLT4); assay: Glucan synthase kinetic inhibition assay, enzyme from clinical isolate 117; assay type: biochemical; conditions: enzyme from isolate 117 grown at 4 μg/ml CAS
Sequence of β-(1,3)-D-glucan synthase of clinical isolate 117 (Q4WLT4 1-1904): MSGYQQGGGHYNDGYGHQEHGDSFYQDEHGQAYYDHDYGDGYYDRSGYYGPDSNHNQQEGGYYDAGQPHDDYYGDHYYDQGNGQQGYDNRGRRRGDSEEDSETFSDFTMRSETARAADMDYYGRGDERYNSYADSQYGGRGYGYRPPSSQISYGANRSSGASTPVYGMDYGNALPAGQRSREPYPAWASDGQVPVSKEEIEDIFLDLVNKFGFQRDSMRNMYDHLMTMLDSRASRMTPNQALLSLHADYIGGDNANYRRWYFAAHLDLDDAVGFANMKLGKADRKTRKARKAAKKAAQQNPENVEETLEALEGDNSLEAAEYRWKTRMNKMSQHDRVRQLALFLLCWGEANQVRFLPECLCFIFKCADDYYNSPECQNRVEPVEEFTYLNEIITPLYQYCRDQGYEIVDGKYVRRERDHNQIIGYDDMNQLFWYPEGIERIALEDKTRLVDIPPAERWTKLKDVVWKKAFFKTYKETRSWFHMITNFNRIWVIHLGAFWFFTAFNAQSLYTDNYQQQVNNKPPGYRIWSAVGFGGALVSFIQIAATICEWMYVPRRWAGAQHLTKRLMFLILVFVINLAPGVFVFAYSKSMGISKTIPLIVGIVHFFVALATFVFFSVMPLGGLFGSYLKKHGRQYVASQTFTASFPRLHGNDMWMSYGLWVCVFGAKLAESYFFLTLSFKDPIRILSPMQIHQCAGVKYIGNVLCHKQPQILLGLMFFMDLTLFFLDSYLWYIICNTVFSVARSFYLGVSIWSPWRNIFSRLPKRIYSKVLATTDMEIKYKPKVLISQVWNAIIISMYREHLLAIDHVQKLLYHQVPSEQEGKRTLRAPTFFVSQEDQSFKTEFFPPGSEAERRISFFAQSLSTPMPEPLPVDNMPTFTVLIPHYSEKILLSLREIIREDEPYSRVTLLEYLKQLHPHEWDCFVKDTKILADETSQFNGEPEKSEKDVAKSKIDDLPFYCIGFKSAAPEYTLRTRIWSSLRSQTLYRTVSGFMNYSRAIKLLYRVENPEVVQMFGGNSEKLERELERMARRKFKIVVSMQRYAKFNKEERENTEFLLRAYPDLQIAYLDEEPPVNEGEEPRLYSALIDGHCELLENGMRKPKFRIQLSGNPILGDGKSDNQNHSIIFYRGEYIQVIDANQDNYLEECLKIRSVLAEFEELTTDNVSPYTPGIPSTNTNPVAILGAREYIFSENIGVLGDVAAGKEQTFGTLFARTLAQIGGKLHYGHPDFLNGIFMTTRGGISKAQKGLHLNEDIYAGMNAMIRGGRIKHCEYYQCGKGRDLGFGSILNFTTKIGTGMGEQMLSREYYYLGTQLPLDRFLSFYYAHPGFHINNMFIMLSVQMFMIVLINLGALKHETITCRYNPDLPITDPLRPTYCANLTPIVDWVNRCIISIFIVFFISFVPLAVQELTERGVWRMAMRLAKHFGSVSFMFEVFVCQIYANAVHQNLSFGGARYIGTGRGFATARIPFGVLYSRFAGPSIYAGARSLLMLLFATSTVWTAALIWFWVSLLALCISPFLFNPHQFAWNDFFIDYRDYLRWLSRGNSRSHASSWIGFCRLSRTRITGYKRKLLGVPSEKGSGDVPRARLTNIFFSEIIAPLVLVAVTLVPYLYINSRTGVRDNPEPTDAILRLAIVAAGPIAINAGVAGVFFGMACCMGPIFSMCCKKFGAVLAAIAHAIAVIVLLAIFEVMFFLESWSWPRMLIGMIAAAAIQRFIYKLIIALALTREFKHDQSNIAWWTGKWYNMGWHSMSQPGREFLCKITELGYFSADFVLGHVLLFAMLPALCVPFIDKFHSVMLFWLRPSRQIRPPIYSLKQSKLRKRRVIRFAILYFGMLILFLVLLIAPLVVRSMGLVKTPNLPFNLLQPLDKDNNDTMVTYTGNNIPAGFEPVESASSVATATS

[3] = tested on: cell wall glucan and chitin of RG101; assay: Cell wall carbohydrate analysis (mass spectrometry, calcofluor white); assay type: cell-based, Aspergillus fumigatus; conditions: CAS 4 μg/ml
Experimental: Strains ATCC 13073 and RG101 were grown in the absence and presence of CAS (4 μg/ml) in 6-well microtiter plates containing yeast extract-peptone-dextrose (YPD) broth for 22 h at 37°C. The cells were then lysed using a French press. The broken cell wall sample was processed for chemical analysis using mass spectrometry at the Complex Carbohydrate Research Center (CCRC) at the University of Georgia, Athens, GA.

[4] = tested on: A. fumigatus RG101; assay: Acute pulmonary aspergillosis model in neutropenic DBA/2 mice, lung fungal burden by qPCR; assay type: in vivo, Aspergillus fumigatus
Experimental: Resistance of RG101 to CAS in vivo was tested in an acute pulmonary aspergillosis model. Thirty inbred DBA/2 mice were rendered neutropenic and infected with 1 × 10^6 RG101 conidia intratracheally. The mice were then treated with CAS (5 mg/kg of body weight), MFG (5 mg/kg), or vehicle daily for 5 days, and lung burdens were determined using quantitative PCR (qPCR). Details of the experiment are provided in Text S1 in the supplemental material.
All animal experiments performed were approved by the Rutgers University Institutional Animal Care and Use Committee. Thirty female DBA/2 mice [The Jackson Laboratory, Bar Harbor, ME] were used in the experiment. The mice were housed in cages equipped with HEPA filters and were allowed free access to food and water. To establish neutropenia, mice were immunosuppressed with cyclophosphamide on days -4 (150 mg/kg), -1 and +2 (100 mg/kg) intraperitoneally (ip) and hydrocortisone on day -1 (200 mg/kg) via subcutaneous injection (sc). The animals were given prophylaxis sc ceftazidime (50 mg/kg) on all days to prevent secondary bacterial infections. A. fumigatus RG101 was streaked out from a frozen glycerol stock and cultured on Potato dextrose agar (PDA) slant for 2 days. The spores were harvested in phosphate-buffered saline (PBS) with 0.05% (v/v) Tween 20 and counted in a hemocytometer. The mice were briefly anesthetized IP Ketamine (65 mg/kg)/Xylazine (5 mg/kg) and infected with 1×10^6 spores of RG101 in 25 µL volume via intratracheal instillation. The 30 RG101 infected mice were randomized into following treatment arms for IP treatment: vehicle, CAS (5 mg/kg), and MFG (5 mg/kg). The first treatment was given at 3 h post infection (PI) and continued daily treatments were administered. On day 5 PI, mice were humanely euthanized via CO2 narcosis. Lungs were excised and homogenized in 1 ml of sterile PBS using a 2 ml tube containing ceramic spheres by MP Biomedicals (116913500). Tissue was then homogenized in 20 s bursts in a mini bead beater (MP FastPrep-24) followed by cooling on ice. DNA was then isolated from an aliquot of the lung homogenate (100 μl) using the QIAamp DNA Mini Kit by Qiagen (51304) and analyzed by real-time quantitative PCR (qPCR) using primers specific for A. fumigatus 18S rRNA genes (Wiederhold et al 2004).

[5] = tested on: A. fumigatus ATCC 13073; assay: Antifungal susceptibility testing (MEC, CLSI M38-A2); assay type: cell-based, Aspergillus fumigatus
Experimental: (§1) Minimum effective concentrations (MECs) for A. fumigatus strains were determined according to CLSI document M38-A2 ([48]) and defined as the lowest drug concentration that led to the growth of small, rounded, compact hyphal forms compared to the hyphal growth seen in the drug-free growth control wells. The following drugs (supplier) were tested: caspofungin (Merck & Co., Inc.), micafungin (Astellas Pharma US, Inc.), anidulafungin (Pfizer Inc.), itraconazole (Sigma-Aldrich), voriconazole (Pfizer Inc.), and amphotericin B (Sigma-Aldrich). In addition, rezafungin and ibrexafungerp were obtained from Cidara Therapeutics and Scynexis Inc., respectively.

[6] = tested on: A. fumigatus S679P (fks1 Ser-679-Pro mutant); assay: as above; assay type: cell-based, Aspergillus fumigatus; conditions: S679P, fks1 Ser-679-Pro
Experimental: as §1

[7] = tested on: A. fumigatus RG101; assay: Electron microscopy (SEM, TEM) of cell wall ultrastructure; assay type: cell-based, Aspergillus fumigatus; conditions: CAS 4 μg/ml, 16 h, SEM and TEM
Experimental: (§2) Scanning electron microscopy (SEM) and transmission electron microscopy (TEM) methods were followed as described previously ([49]) and in Text S1.
(§3) For SEM, mycelia of ATCC 13073 and RG101 were grown in the absence and presence of CAS (4 µg/mL) and were fixed with 2.5% (v/v) glutaraldehyde in 0.1 M cacodylate buffer (pH 7.4) at room temperature for 3 h. After being washed with 0.1 M cacodylate buffer, specimens were post-fixed for 1 h with 1% osmium tetroxide in 0.1 M cacodylate buffer (pH 7.4) at 4 °C. Samples were dehydrated in graded ethanol, and then critical point dried in liquid carbon dioxide and sputter-coated with a thin layer of palladium–gold. Observations were carried out using Hitachi S-3400 N scanning electron microscope.
(§4) For TEM, cultures were fixed with 2.5% (v/v) glutaraldehyde solution as described above. They were then post-fixed for 1 h with 1% (w/v) osmium tetroxide in 0.1 M cacodylate buffer (pH 7.4) at 4 °C. After three wash steps in buffer, specimens were dehydrated in a series of graded ethanol and embedded in Embed 812. Thin sections were stained with uranyl acetate followed by lead nitrate and examined in a Hitachi H-7500 electron microscope operated at 100 KV.

[8] = tested on: A. fumigatus ATCC 13073; assay: as above; assay type: cell-based, Aspergillus fumigatus; conditions: CAS 4 μg/ml, 16 h, SEM and TEM
Experimental: as §2, §3, §4

[9] = tested on: lipid microenvironment of glucan synthase of RG101; assay: Lipid analysis (LC-MS/MS) of partially purified glucan synthase; assay type: cell-based, Aspergillus fumigatus; conditions: RG101 grown with CAS 1 μg/ml
Experimental: (§5) Approximately 10 μg/ml of partially purified glucan synthase of RG101 and clinical isolates was analyzed for lipid content by LC-MS/MS ([50]) at the Lipidomics Shared Resource of the Medical University of South Carolina (http://www.hollingscancercenter.org/research/shared-resources/lipidomics/index.html).

[10] = tested on: lipid microenvironment of glucan synthase of clinical isolates 117, 2770 and 32458; assay: as above; assay type: cell-based, Aspergillus fumigatus; conditions: isolates 117, 2770, 32458 treated with CAS
Experimental: as §5

With `CC[C@H](C)C[C@H](C)CCCCCCCCC(=O)N[C@H]1C[C@@H](O)[C@@H](NCCN)NC(=O)[C@@H]2[C@@H](O)CCN2C(=O)[C@H]([C@H](O)CCN)NC(=O)[C@H]([C@H](O)[C@@H](O)c2ccc(O)cc2)NC(=O)[C@@H]2C[C@@H](O)CN2C(=O)[C@H]([C@@H](C)O)NC1=O` [CAS, caspofungin] the “Breakthrough growth concentrations, RG101” value ([1]; 24 h) was 0.5 to 8 µg/mL, the “MEC 2 (rosettes form again), RG101” value ([1]; 24 h) was 16 µg/mL and the “Susceptibility phenotype of RG101” value ([1]; 24 h) was “resistant”. For the same compound, the “Growth phenotype of RG101 at 30 h” value ([1]; 30 h, all concentrations tested (0.25 to 8 μg/ml)) was “full breakthrough”, the IC50 [2] was greater than 9.15 µM and the “Chitin levels in RG101 upon CAS exposure” value ([3]; MS and calcofluor white) was “no significant increase”. The “Cell wall glucan content in RG101 treated with CAS” value ([3]; mass spectroscopy) was “no reduction”, the “Decrease in lung burden versus vehicle-treated group” value ([4]; RG101, 5 mg/kg daily for 5 days) was “No significant differences” and the “Average fungal lung burden” value ([4]; RG101 intratracheal, 5 mg/kg daily IP for 5 days, qPCR) was 22.6 ng fungal DNA per lung. For the same compound, the “Drug susceptibility testing result, ATCC 13073” value ([5]; 24 h, Fig 1B) was 0.12 µg/mL, the “MEC (minimum effective concentration)” value ([5]; ATCC 13073, fks1 WT) was 0.12 µg/mL and the “MEC (minimum effective concentration)” value [6] was 16 µg/mL. For the same compound, the “Cell wall ultrastructure of RG101 grown in the presence of CAS” value [7] was “did not show any ultrastructural cell wall damage”, the “Cell wall ultrastructure of ATCC 13073 grown in the presence of CAS” value [8] was “extensive damage” and the “Increase in abundance of dihydrosphingosine (DhSph), CAS-treated vs untreated” value [9] was 2 fold and 3 fold. The “Increase in abundance of phytoceramide (C24), CAS-induced vs uninduced” value [9] was 3 fold, the “Increase in abundance of phytosphingosine (PhSph), CAS-treated vs untreated” value [9] was 10 fold and the “Abundance of DhSph and PhSph in enzyme preparations of CAS-treated clinical isolates” value [10] was “significantly increased abundance”.
